For test [1], the system named is Pseudomonas aeruginosa PA01. Kind of test: Inhibition of biofilm formation and growth, 96-well plates, crystal violet. The class given is cell-based. To be noted: for inhibited biofilm formation of P. aeruginosa PAO1: approximately 10 ug/ml, compared to the controls; for inhibitory effect on the growth of P. aeruginosa PA01: compared to controls. On the procedure: An overnight culture of P. aeruginosa PA01 in LB+1% citrate was prepared. It was incubated at 37° C. shaker for 24 hours. A 1:20 dilution of the overnight culture was prepared. Test compounds are diluted appropriately with a volume of ethanol followed by shaking for approximately 5 minutes and then diluted with an appropriate volume of water.
Replicate 96-well plates are prepared, preferably two to four replicates, with appropriately diluted overnight culture and test compound in each well. Preferably, test compounds are prepared at 10 to 30 micrograms per milliliter. On each 96-well plate controls are appropriately prepared with at least one set of controls consisting of overnight culture and ethanol/water diluent and another set of controls consisting of growth media and ethanol/water diluent. Plates are covered with foil at room temperature and shaken for approximately 24 hours.
After shaking absorbance of the wells of the plates are determined, preferably at 630 nanometers. Liquid is than aspirated out of the wells and each well is filled with diluted crystal violet, preferably approximately 250 microliters of a 1:4 dilution, and allowed to stand for approximately 10 minutes. Each well of the plate is washed, preferably four times, with PBS with approximately one minute between each wash. After the final wash is aspirated out, the plate may be turned over onto paper towels to dump out excess PBS. 95% ethanol is added to each well, preferably 250 microliters. Absorbance of each well of a plate is determined, preferably at 540 nm. Preferably slight shaking is performed during the absorbance reading for approximately 5 minutes. Each well of the plate is than diluted […] with ethanol in a separate plate, preferably 145 ul of 95% ethanol and 5 uL from the original plate, and absorbance is determined. Preferably, slight shaking for approximately 3 minutes is performed.
Biofilm inhibition in each well is determined by subtracting the absorbance of the wells with test compounds from wells with controls containing overnight culture subtracting out controls with only media. A typical positive result of biofilm inhibition confirmed with replicates would be 30 percent to 80 percent less biofilm in the wells with test compound compared to the wells with controls of overnight culture.

The subject of a further test is E. coli UT189[pCOMGFP]. Kind of test: Biofilm pods (IBCs) in bladders of infected mice, intravesical compound, confocal microscopy. Particulars: vs controls. The class given is in vivo, Escherichia coli. On the procedure: The procedures in this example has been previously reported by Justice, S. et al. Differentiation and development pathways of uropathogenic Escherichia coli in urinary tract pathogenesis. PNAS, 2004, 101(5), p. 1333-1338. Briefly, E. coli UT189[pCOMGFP] was prepared after retrieval from frozen stocks by inoculating appropriately in LB medium statically for approximately 20 hours. Cells were harvested and suspended in 1 ml of PBS. Cells were diluted appropriately to achieve approximately a 10^8 CFU or 10^7 CFU input into C3H/HeN mice (2 mice per group).
Mice were deprived of water for approximately two hours. In experiment 1, all mice were anesthetized with 0.15 cc ketamine cocktail. In experiment 2, all mice were anesthetized with isofluorane. In experiment 1, urine was dispelled from the bladders and approximately 40 μg/ml of test compound or an appropriate amount of ethanol as control was introduced into the bladders via catheterization of the urethra using a tubing coated tuberculin syringe. 30 minutes was allowed to elapse. In experiment 2, bladders were not pre-incubated with test compounds. Bladders were then expelled and an inoculum of 10^8 CFU (Experiment 1) or 10^7 CFU (Experiment 2) of E. coli containing 40 μg/ml of test compound or equivalent amount of ethanol as controls were introduced into the bladders as indicated above.
In experiment 1 five hours elapsed and in experiment 2 six hours elapsed, and then mice were anesthetized and sacrificed appropriately. The bladders were removed, bisected, stretched, and fixed in 3% paraformaldehyde for 1 hour at room temperature. Bladders were then permeabilized in 0.01% Triton/PBS for 10 minutes and counter stained with TOPRO3 (Molecular Probes) for 10 minutes for visualization by confocal microscopy. Bladders were mounted on Prolong antifade (Molecular Probes).

Test [2] concerns E. coli clinical strain UT189. Kind of test: Inhibition of biofilm formation, crystal violet, 96 well plates. It counts as cell-based. To be noted: Escherichia coli; 20 ug/ml; read-out: inhibited biofilm formation of the UT189 strain. On the procedure:
Biofilm inhibition experiments were conducted using an assay adapted from the reported protocol described in Pratt and Kolter, 1998, Molecular Microbiology, 30: 285-293; Li et al., 2001, J. Bacteriol., 183: 897-908. E. coli clinical strain UT189 was grown in LB in 96 well plates at room temperature for one or two days without shaking. E. coli laboratory strain JM109 was grown in LB plus 0.2% glucose in 96 well plates at room temperature for one day without shaking. To quantify the biofilm mass, the suspension culture was poured out and the biofilm was washed three times with water. The biofilm was stained with 0.1% crystal violet for 20 minutes. The plates were then washed three times with water. OD reading at 540 nm was measured to quantify the biofilm mass at the bottom of the wells. Then 95% ethanol was added to dissolve the dye at the bottom and on the wall and the OD reading at 540 nm was measured to quantify the total biofilm mass. To study the overall effect of the compounds (3.6 mg/mL in 100% ethanol as stock solution), it was added with the inoculation and a time course of biofilm mass was measured. Appropriate amounts of 100% ethanol were added to each sample to eliminate the effect of solvent. Each condition had 3-4 replicates on each plate and was performed over multiple days.

For test [3], the system named is P. aeruginosa strain PAO1. Kind of test: Rotating disk reactor (RDR) biofilm test with and without tobramycin, culturable bacteria. The class given is cell-based, Pseudomonas aeruginosa. On the procedure:
Biofilm formation of P. aeruginosa was evaluated using a standardized biofilm method with a rotating disk reactor (RDR). This method provides a model resembling the formation of biofilms in cystic fibrosis patients. The rotating disk reactor consists of a one-liter glass beaker fitted with a drain spout. The bottom of the vessel contains a magnetically driven rotor with six 1.27 cm diameter coupons constructed from polystyrene. The rotor consists of a star-head magnetic stir bar upon which a disk was affixed to hold the coupons. The vessel with the stir bar was placed on a stir plate and rotated to provide fluid shear. A nutrient solution (AB Trace Medium with 0.3 mM glucose, see Table 3 below for composition) was added through a stopper in the top of the reactor at a flow rate of 5 ml/min. The reactor volume was approximately 180 ml and varied slightly between reactors depending on the placement of the drain spout and the rotational speed of the rotor. At a volume of 180 ml, the residence time of the reactors was 36 minutes. The reactors were operated at room temperature (c.a. 26° C.).
For each test, two RDRs were operated in parallel with one receiving test compound and the other serving as an untreated control. The RDRs were sterilized by autoclave, then filled with sterile medium and inoculated with P. aeruginosa strain PAO1. The reactors were then incubated at room temperature in batch mode (no medium flow) for a period of 24 hours, after which the flow was initiated for a further 24 hour incubation. Test compounds were dissolved in 10 ml ethanol to achieve a concentration of 1.8 mg/ml. After the 48 hours of biofilm development described above, the 10 ml of ethanol containing the test compounds were added to the reactor to achieve a final concentration of approximately 50, 100, or 200 μg/ml. Control reactors received 10 ml of ethanol. The reactors were then incubated for an additional 24 hours in batch (no flow) mode. After this incubation period, the six coupons were removed from each reactor and placed in 12-well polystyrene tissue culture plates with wells containing either 2 ml of a 100 μg/ml tobramycin solution or 2 ml of phosphate-buffered saline (PBS). These plates were incubated at room temperature for two hours. The coupons were then rinsed by three transfers to plates containing 2 ml of fresh PBS. For each two RDR reactors run in parallel, four sets of three coupons were obtained: one set with no test compound treatment and no tobramycin treatment, one set with no test compound treatment and tobramycin treatment, one set treated with a test compound treatment and no tobramycin treatment, and one set treated with a test compound treatment and tobramycin. After rinsing, one coupon of each set of three was stained with a LIVE/DEAD® BacLight™ Bacterial Viability Kit (Molecular Probes, Eugene Oreg.) and imaged using epifluorescent microscopy. The remaining two coupons were placed in 10 ml of PBS and sonicated for five minutes to remove and disperse biofilm cells. The resulting bacterial suspensions were then serially diluted in PBS and plated on tryptic soy agar plates for enumeration of culturable bacteria. The plates were incubated for 24 hours at 37° C. before colony forming units (CFU) were determined.
The results are averages from experiments performed on three separate days for each test compound. The values reported are as loglo CFU.

Test [4] relates to E. coli clinical strain UT189 against bladder epithelial cells. Kind of test: Binding to and invasion of bladder epithelial cells by E. coli. It counts as cell-based. On the procedure: The effect of test compounds on bacterial invasion of E. coli clinical strain UT189 was studied as described in Elsinghorst, et al. 1994, Methods Enzymol, 236:405-420; and Martinez et al., 2000, EMBO J., 19:2803-2812. Epithelial bladder cells were grown in plates. Asiatic acid, corosolic acid, or ursolic acid were added at concentrations of 10 μg/ml, 20 μg/ml, or 40 μg/ml to bacteria and epithelial cells for approximately 5, 15, 30, or 60 minutes with approximately 10^7 CFU of E. coli. Binding was assessed at time zero and invasion was assessed at approximately 5, 15, 30, or 60 minutes from completing the mixture of compound, bacteria, and epithelial cells. As a control ethanol was added to cells to a final concentration of 0.1%. The effect of bacterial viability and bacterial adherence during the infection period was evaluated according to the methods described in Martinez et al., 2000, EMBO J., 19:2803-2812.

Test [5] relates to methicillin-resistant Staphylococcus aureus. To be noted: cited from earlier work.

Where “and” joins values, the source holds several entries; their conditions need not be identical. Equal entries are not always repeated.

For the compound “3-hydroxy-12,20(30) ursadienoic acid [3-hydroxy-12, 20(30) ursadienoic acid]”, in test [1], the “inhibited biofilm formation of P. aeruginosa PAO1” value is on record as “about 40%” and the “inhibitory effect on the growth of P. aeruginosa PA01” value is “no inhibitory effect”.
Consider `CC(=O)OC1CCC2(C)C(CCC3(C)C2CC=C2[C@@H]4CC(C)(C)CCC4(C(=O)O)CCC23C)C1(C)C` (some centres unmarked) [3-acetyl oleanolic acid], for which, in test [1], the “inhibited biofilm formation of P. aeruginosa PAO1” value is reported as roughly 50% and the “inhibitory effect on the growth of P. aeruginosa PA01” value was “no inhibitory effect”.
With `C[C@@H]1CC[C@]2(C(=O)O)CCC3(C)C(=CCC4C5(C)C[C@@H](O)[C@H](O)C(C)(C)C5CCC43C)C2[C@H]1C` (some centres unmarked) [Corosolic acid], the “reduction in biofilm pods or IBCs in the bladders of mice” value in the test on E. coli UT189[pCOMGFP] (experiment 1: C3H/HeN mice, 40 μg/ml intravesical with 30 min pre-incubation, 10^8 CFU, five hours) stood at 94%. The “reduction in large biofilm pods or large IBCs in the bladders of mice” value in the test with E. coli UT189[pCOMGFP] (experiment 2: C3H/HeN mice, 40 μg/ml in inoculum, no pre-incubation, 10^7 CFU, six hours) is roughly 60%. For the same compound, the inhibition at 20 µg/mL in test [2] is roughly 85%. Besides, the “CFU, Test Compound” value in test [3] (test compound 100 μg/ml 24 h, no tobramycin, average of three days) is recorded as 7.8 loglo CFU. Moreover, the “CFU, Tobramycin and Test Compound” value in test [3] (test compound 100 μg/ml 24 h, then tobramycin 100 μg/ml 2 h, average of three days) stood at 5.3 loglo CFU. Moreover, the “reduced invasion of E. coli into bladder epithelial cells” value is 65% in test [4] (20 μg/ml, 60 minutes, n=4); 10% in test [4] (40 µg/ml, 5 minutes, triplicate, compared to the controls); 70% in test [4] (40 µg/ml, 15 minutes, triplicate, compared to the controls); 90% in test [4] (40 μg/ml, 60 minutes, separate experiments (n=4 to 7)); 90% in test [4] (40 µg/ml, 60 minutes, triplicate, compared to the controls).
Regarding `C[C@@H]1CC[C@]2(C(=O)O)CC[C@]3(C)C(=CCC4[C@@]5(C)C[C@@H](O)[C@@H](O)C(C)(C)C5CC[C@]43C)C2[C@H]1C` (some centres unmarked) [Pygenic acid A, Pygenic Acid A], in test [1], the “inhibited biofilm formation of P. aeruginosa PAO1” value was “about 40%” and the “inhibitory effect on the growth of P. aeruginosa PA01” value is “no inhibitory effect”.
In the same order, the values of `C=C1CCC2(C(=O)O)CCC3(C)C(=CCC4C5(C)CCC(O)C(C)(C)C5CCC43C)C2C1C` (centres unmarked) [Pygenic acid B, Pygenic Acid B] are roughly 30% and “no inhibitory effect”.
As to `NC[C@H]1O[C@H](O[C@H]2[C@H](O)[C@@H](O[C@H]3O[C@H](CO)[C@@H](O)[C@H](N)[C@H]3O)[C@H](N)C[C@@H]2N)[C@H](N)C[C@@H]1O` [Tobramycin, reference compound], the “CFU, Tobramycin” value in test [3] (tobramycin 100 μg/ml 2 h, no test compound, parallel reactor of the experiment) was 5.8 loglo CFU and 6.5 loglo CFU and 6.1 loglo CFU and 6.7 loglo CFU and 6.2 loglo CFU.
For `CO[C@H]1/C=C/O[C@@]2(C)Oc3c(C)c(O)c4c(O)c(c(/C=N/N5CCN(C)CC5)c(O)c4c3C2=O)NC(=O)/C(C)=C\C=C\[C@H](C)[C@H](O)[C@@H](C)[C@@H](O)[C@@H](C)[C@H](OC(C)=O)[C@@H]1C` [rifampin], the “eradication of methicillin-resistant Staphylococcus aureus in a biofilm” value in test [5] (biofilm, urinary catheters) is listed as “unable to eradicate”. Moreover, in test [5] (planktonic cells), the “effect against planktonic, or suspended cells” value is given as “effective”.
For the compound Echinocystic Acid, in test [1], the “inhibited biofilm formation of P. aeruginosa PAO1” value is reported as roughly 25% and the “inhibitory effect on the growth of P. aeruginosa PA01” value was “no inhibitory effect”.
